Data published in patent US20240409585A1, “MACROCYCLIC IMMUNOMODULATORS” (priority 2021, published 2024).
Bridge positions count the residues as written; N and C are the ends. Square brackets hold non-standard residues; d marks the D form. Peptide text beside a SMILES is read from it. * marks the point of attachment. ξ: configuration not given here. Phe(4-COOH) = N[C@@H](Cc1ccc(C(=O)O)cc1)C(=O)O; Bip = N[C@@H](Cc1ccc(-c2ccccc2)cc1)C(=O)O; Val(3-OH) = CC(C)(O)[C@H](N)C(=O)O; Cha = N[C@@H](CC1CCCCC1)C(=O)O; Ile(3ξ) = CCC(C)[C@H](N)C(=O)O; Tle = CC(C)(C)[C@H](N)C(=O)O; Carboxymethyl = O=C(O)C*; NMeA = CN[C@@H](C)C(=O)O; Dab = NCC[C@H](N)C(=O)O

Molecular target: T1, PE-labeled human PD-L1-Ig binding to Jurkat cell line over-expressing human PD-1 (Jurkat-PD-1) (Homo sapiens, UniProt Q15116)
T1 construct: expressed in transfected cells; host or cells: Jurkat
Assay: Jurkat-PD-1 Cell Binding High-Content Screening Assay (CBA): Method 1
Conditions: Jurkat-hPD-1 cells, PE-labeled PD-L1-Ig 20 nM final; read-out: Jurkat HPDL1 PD1 IC50 (uM) (Method 1)

T1 sequence (Q15116 25-288): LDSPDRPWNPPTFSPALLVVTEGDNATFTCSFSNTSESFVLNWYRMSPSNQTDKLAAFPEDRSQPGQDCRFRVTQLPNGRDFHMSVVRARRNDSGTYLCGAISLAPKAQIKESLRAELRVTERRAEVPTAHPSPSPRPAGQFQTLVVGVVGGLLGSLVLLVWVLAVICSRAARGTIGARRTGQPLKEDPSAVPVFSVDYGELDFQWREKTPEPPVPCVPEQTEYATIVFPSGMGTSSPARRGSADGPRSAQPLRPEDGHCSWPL

Structure (SMILES)	IC50
CCC(C)[C@@H]1NC(=O)[C@H](Cc2ccc(-c3ccccc3)cc2)NC(=O)[C@H](CC(C)C)NC(=O)[C@H](Cc2c[nH]c3ccccc23)NC(=O)[C@H](CC(=O)O)NC(=O)[C@H](Cc2ccc(C(=O)O)cc2)NC(=O)[C@H](Cc2ccc(OCC(=O)O)cc2)NC(=O)CSC[C@@H](C(=O)N[C@@H](CC(N)=O)C(N)=O)NC(=O)[C@H](CO)NC(=O)[C@H](C(C)(C)O)NC(=O)[C@H](CC2CCCCC2)NC(=O)[C@H](CCN)NC(=O)[C@@H](CC(C)C)NC(=O)[C@H](C)N(C)C1=O (stereo partly drawn) [Compound 1916] ({CH2CO}-Y(Carboxymethyl)[Phe(4-COOH)]DWL[Bip][Ile(3ξ)][NMeA][dL][Dab][Cha][Val(3-OH)]SCN-NH2; thioether N-14)	0.02 µM
CCC(C)[C@@H]1NC(=O)[C@H](Cc2ccc(-c3ccccc3)cc2)NC(=O)[C@H](CC(C)C)NC(=O)[C@H](Cc2c[nH]c3ccccc23)NC(=O)[C@H](CC(=O)O)NC(=O)[C@H](Cc2ccc(C(=O)O)cc2)NC(=O)[C@H](Cc2ccc(OCC(=O)O)cc2)NC(=O)CSC[C@@H](C(=O)N[C@@H](CC(N)=O)C(N)=O)NC(=O)[C@H](CO)NC(=O)[C@H](C(C)C)NC(=O)[C@H](CC2CCCCC2)NC(=O)[C@H](CCN)NC(=O)[C@@H](CC(C)C)NC(=O)[C@H](C)N(C)C1=O (stereo partly drawn) [Compound 1917] ({CH2CO}-Y(Carboxymethyl)[Phe(4-COOH)]DWL[Bip][Ile(3ξ)][NMeA][dL][Dab][Cha]VSCN-NH2; thioether N-14)	0.04 µM
CCC(C)[C@@H]1NC(=O)[C@H](Cc2ccc(-c3ccccc3)cc2)NC(=O)[C@H](CC(C)C)NC(=O)[C@H](Cc2c[nH]c3ccccc23)NC(=O)[C@H](CC(=O)O)NC(=O)[C@H](Cc2ccc(C(=O)O)cc2)NC(=O)[C@H](Cc2ccc(OCC(=O)O)cc2)NC(=O)CSC[C@@H](C(=O)N[C@@H](CC(N)=O)C(N)=O)NC(=O)[C@H]([C@@H](C)O)NC(=O)[C@H](C(C)C)NC(=O)[C@H](CC2CCCCC2)NC(=O)[C@H](CCN)NC(=O)[C@@H](CC(C)C)NC(=O)[C@H](C)N(C)C1=O (stereo partly drawn) [Compound 1919] ({CH2CO}-Y(Carboxymethyl)[Phe(4-COOH)]DWL[Bip][Ile(3ξ)][NMeA][dL][Dab][Cha]VTCN-NH2; thioether N-14)	0.03 µM
CCC(C)[C@@H]1NC(=O)[C@H](Cc2ccc(-c3ccccc3)cc2)NC(=O)[C@H](CC(C)C)NC(=O)[C@H](Cc2c[nH]c3ccccc23)NC(=O)[C@H](CC(=O)O)NC(=O)[C@H](Cc2ccc(C(=O)O)cc2)NC(=O)[C@H](Cc2ccc(OCC(=O)O)cc2)NC(=O)CSC[C@@H](C(=O)N[C@@H](CC(N)=O)C(N)=O)NC(=O)[C@H]([C@@H](C)O)NC(=O)[C@H](C(C)C)NC(=O)[C@H](CC2CCCCC2)NC(=O)[C@H](CCN)NC(=O)[C@@H](CC(C)C)NC(=O)[C@H](C)N(C)C1=O (stereo partly drawn) [Compound 1922] ({CH2CO}-Y(Carboxymethyl)[Phe(4-COOH)]DWL[Bip][Ile(3ξ)][NMeA][dL][Dab][Cha]VTCN-NH2; thioether N-14)	0.04 µM
CCC(C)[C@@H]1NC(=O)[C@H](Cc2ccc(-c3ccccc3)cc2)NC(=O)[C@H](CC(C)C)NC(=O)[C@H](Cc2c[nH]c3ccccc23)NC(=O)[C@H](CC(=O)O)NC(=O)[C@H](Cc2ccc(C(=O)O)cc2)NC(=O)[C@H](Cc2ccc(OCC(=O)O)cc2)NC(=O)CSC[C@@H](C(=O)N[C@@H](CC(N)=O)C(N)=O)NC(=O)[C@H](CO)NC(=O)[C@H](C(C)C)NC(=O)[C@H](CC2CCCCC2)NC(=O)[C@H](CCN)NC(=O)[C@@H](CC(C)C)NC(=O)[C@H](C)N(C)C1=O (stereo partly drawn) [Compound 1923] ({CH2CO}-Y(Carboxymethyl)[Phe(4-COOH)]DWL[Bip][Ile(3ξ)][NMeA][dL][Dab][Cha]VSCN-NH2; thioether N-14)	0.02 µM
CCC(C)[C@@H]1NC(=O)[C@H](Cc2ccc(-c3ccccc3)cc2)NC(=O)[C@H](CC(C)C)NC(=O)[C@H](Cc2c[nH]c3ccccc23)NC(=O)[C@H](CC(=O)O)NC(=O)[C@H](Cc2ccc(C(=O)O)cc2)NC(=O)[C@H](Cc2ccc(OCC(=O)O)cc2)NC(=O)CSC[C@@H](C(=O)N[C@@H](CC(N)=O)C(N)=O)NC(=O)[C@H](CCC(=O)O)NC(=O)[C@H](C(C)C)NC(=O)[C@H](CC2CCCCC2)NC(=O)[C@H](CCN)NC(=O)[C@@H](CC(C)C)NC(=O)[C@H](C)N(C)C1=O (stereo partly drawn) [Compound 1924] ({CH2CO}-Y(Carboxymethyl)[Phe(4-COOH)]DWL[Bip][Ile(3ξ)][NMeA][dL][Dab][Cha]VECN-NH2; thioether N-14)	0.04 µM
CCC(C)[C@@H]1NC(=O)[C@H](Cc2ccc(-c3ccccc3)cc2)NC(=O)[C@H](CC(C)C)NC(=O)[C@H](Cc2c[nH]c3ccccc23)NC(=O)[C@H](CC(=O)O)NC(=O)[C@H](Cc2ccc(C(=O)O)cc2)NC(=O)[C@H](Cc2ccc(OCC(=O)O)cc2)NC(=O)CSC[C@@H](C(=O)N[C@@H](CC(N)=O)C(N)=O)NC(=O)[C@H](CCC(N)=O)NC(=O)[C@H](C(C)C)NC(=O)[C@H](CC2CCCCC2)NC(=O)[C@H](CCN)NC(=O)[C@@H](CC(C)C)NC(=O)[C@H](C)N(C)C1=O (stereo partly drawn) [Compound 1925] ({CH2CO}-Y(Carboxymethyl)[Phe(4-COOH)]DWL[Bip][Ile(3ξ)][NMeA][dL][Dab][Cha]VQCN-NH2; thioether N-14)	0.03 µM
CCC(C)[C@@H]1NC(=O)[C@H](Cc2ccc(-c3ccccc3)cc2)NC(=O)[C@H](CC(C)C)NC(=O)[C@H](Cc2c[nH]c3ccccc23)NC(=O)[C@H](CC(=O)O)NC(=O)[C@H](Cc2ccc(C(=O)O)cc2)NC(=O)[C@H](Cc2ccc(OCC(=O)O)cc2)NC(=O)CSC[C@@H](C(=O)N[C@@H](CO)C(N)=O)NC(=O)[C@H]([C@@H](C)O)NC(=O)[C@H](C(C)C)NC(=O)[C@H](CC2CCCCC2)NC(=O)[C@H](CCN)NC(=O)[C@@H](CC(C)C)NC(=O)[C@H](C)N(C)C1=O (stereo partly drawn) [Compound 1928] ({CH2CO}-Y(Carboxymethyl)[Phe(4-COOH)]DWL[Bip][Ile(3ξ)][NMeA][dL][Dab][Cha]VTCS-NH2; thioether N-14)	0.02 µM
CCC(C)[C@@H]1NC(=O)[C@H](Cc2ccc(-c3ccccc3)cc2)NC(=O)[C@H](CC(C)C)NC(=O)[C@H](Cc2c[nH]c3ccccc23)NC(=O)[C@H](CC(=O)O)NC(=O)[C@H](Cc2ccc(C(=O)O)cc2)NC(=O)[C@H](Cc2ccc(OCC(=O)O)cc2)NC(=O)CSC[C@@H](C(=O)N[C@@H](CO)C(N)=O)NC(=O)[C@H](CO)NC(=O)[C@H](C(C)C)NC(=O)[C@H](CC2CCCCC2)NC(=O)[C@H](CCN)NC(=O)[C@@H](CC(C)C)NC(=O)[C@H](C)N(C)C1=O (stereo partly drawn) [Compound 1929] ({CH2CO}-Y(Carboxymethyl)[Phe(4-COOH)]DWL[Bip][Ile(3ξ)][NMeA][dL][Dab][Cha]VSCS-NH2; thioether N-14)	0.02 µM

Now those with a lower IC50, led by results:

IC50	Structure (SMILES)
0.01 µM	CC(C)C[C@@H]1NC(=O)[C@H](Cc2c[nH]c3ccccc23)NC(=O)[C@H](CC(=O)O)NC(=O)[C@H](Cc2ccc(C(=O)O)cc2)NC(=O)[C@H](Cc2ccc(OCC(=O)O)cc2)NC(=O)CSC[C@@H](C(=O)N[C@@H](CC(N)=O)C(N)=O)NC(=O)[C@H](CO)NC(=O)[C@H](C(C)(C)C)NC(=O)[C@H](CC2CCCCC2)NC(=O)[C@H](CCN)NC(=O)[C@@H](CC(C)C)NC(=O)[C@H](C)N(C)C(=O)[C@H](C(C)C)NC(=O)[C@H](Cc2ccc(-c3ccccc3)cc2)NC1=O [Compound 1914] ({CH2CO}-Y(Carboxymethyl)[Phe(4-COOH)]DWL[Bip]V[NMeA][dL][Dab][Cha][Tle]SCN-NH2; thioether N-14)
0.01 µM	CC(C)C[C@@H]1NC(=O)[C@H](Cc2c[nH]c3ccccc23)NC(=O)[C@H](CC(=O)O)NC(=O)[C@H](Cc2ccc(C(=O)O)cc2)NC(=O)[C@H](Cc2ccc(OCC(=O)O)cc2)NC(=O)CSC[C@@H](C(=O)N[C@@H](CC(N)=O)C(N)=O)NC(=O)[C@H](CO)NC(=O)[C@H](C(C)(C)O)NC(=O)[C@H](CC2CCCCC2)NC(=O)[C@H](CCN)NC(=O)[C@@H](CC(C)C)NC(=O)[C@H](C)N(C)C(=O)[C@H](C(C)C)NC(=O)[C@H](Cc2ccc(-c3ccccc3)cc2)NC1=O [Compound 1915] ({CH2CO}-Y(Carboxymethyl)[Phe(4-COOH)]DWL[Bip]V[NMeA][dL][Dab][Cha][Val(3-OH)]SCN-NH2; thioether N-14)
0.01 µM	CCC(C)[C@@H]1NC(=O)[C@H](Cc2ccc(-c3ccccc3)cc2)NC(=O)[C@H](CC(C)C)NC(=O)[C@H](Cc2c[nH]c3ccccc23)NC(=O)[C@H](CC(=O)O)NC(=O)[C@H](Cc2ccc(C(=O)O)cc2)NC(=O)[C@H](Cc2ccc(OCC(=O)O)cc2)NC(=O)CSC[C@@H](C(=O)N[C@@H](CC(N)=O)C(N)=O)NC(=O)[C@H](CCC(=O)O)NC(=O)[C@H](C(C)C)NC(=O)[C@H](CC2CCCCC2)NC(=O)[C@H](CCN)NC(=O)[C@@H](CC(C)C)NC(=O)[C@H](C)N(C)C1=O (stereo partly drawn) [Compound 1921] ({CH2CO}-Y(Carboxymethyl)[Phe(4-COOH)]DWL[Bip][Ile(3ξ)][NMeA][dL][Dab][Cha]VECN-NH2; thioether N-14)
0.01 µM	CCC(C)[C@@H]1NC(=O)[C@H](Cc2ccc(-c3ccccc3)cc2)NC(=O)[C@H](CC(C)C)NC(=O)[C@H](Cc2c[nH]c3ccccc23)NC(=O)[C@H](CC(=O)O)NC(=O)[C@H](Cc2ccc(C(=O)O)cc2)NC(=O)[C@H](Cc2ccc(OCC(=O)O)cc2)NC(=O)CSC[C@@H](C(=O)N[C@@H](CCN)C(N)=O)NC(=O)[C@H]([C@@H](C)O)NC(=O)[C@H](C(C)C)NC(=O)[C@H](CC2CCCCC2)NC(=O)[C@H](CCN)NC(=O)[C@@H](CC(C)C)NC(=O)[C@H](C)N(C)C1=O (stereo partly drawn) [Compound 1926] ({CH2CO}-Y(Carboxymethyl)[Phe(4-COOH)]DWL[Bip][Ile(3ξ)][NMeA][dL][Dab][Cha]VTC[Dab]-NH2; thioether N-14)
0.01 µM	CCC(C)[C@@H]1NC(=O)[C@H](Cc2ccc(-c3ccccc3)cc2)NC(=O)[C@H](CC(C)C)NC(=O)[C@H](Cc2c[nH]c3ccccc23)NC(=O)[C@H](CC(=O)O)NC(=O)[C@H](Cc2ccc(C(=O)O)cc2)NC(=O)[C@H](Cc2ccc(OCC(=O)O)cc2)NC(=O)CSC[C@@H](C(=O)N[C@@H](CCN)C(N)=O)NC(=O)[C@H](CCC(N)=O)NC(=O)[C@H](C(C)C)NC(=O)[C@H](CC2CCCCC2)NC(=O)[C@H](CCN)NC(=O)[C@@H](CC(C)C)NC(=O)[C@H](C)N(C)C1=O (stereo partly drawn) [Compound 1927] ({CH2CO}-Y(Carboxymethyl)[Phe(4-COOH)]DWL[Bip][Ile(3ξ)][NMeA][dL][Dab][Cha]VQC[Dab]-NH2; thioether N-14)
